Results published in publication PMC6315005, “5F-Cumyl-PINACA in ‘e-liquids’ for electronic cigarettes: comprehensive characterization of a new type of synthetic cannabinoid in a trendy product including investigations on the in vitro and in vivo phase I metabolism of 5F-Cumyl-PINACA and its non-fluorinated analog Cumyl-PINACA” (Forensic Toxicology, 2018).
Entries after “also recorded” stand apart in the source; their conditions may differ.

What was measured:
CB1 receptors = test system: CB1 receptors; set-up: method as in PMID 28792725; conditions: mouse AtT-20 neuroblastoma cells, membrane potential; cited from earlier work
CB1 receptor = test system: CB1 receptor; set-up: method as in PMID 29367862; conditions: [35S]GTPγS binding; cited from earlier work
CB2 receptor = test system: CB2 receptor; set-up: method as in PMID 29367862; conditions: [35S]GTPγS binding; cited from earlier work
CB2 receptors = test system: CB2 receptors; set-up: method as in PMID 28792725; conditions: mouse AtT-20 neuroblastoma cells, membrane potential; cited from earlier work
[1] = Authentic urine sample, phase I metabolites of 5F-Cumyl-PINACA (LC-MS/MS); format: in vivo, human; conditions: for Urine [Peak area]: 5F-Cumyl-PINACA consumption
Experimental: (§1) The LC–MS/MS system used for the analysis of the urine and the pHLM assay samples consisted of a Nexera X2 UHPLC (Shimadzu) coupled to a QTRAP™ 5500 triple quadrupole linear ion trap instrument (SCIEX) equipped with the TurboIonSpray® probe. […] The total flow rate was 0.4 mL/min. The autosampler and the column oven temperatures were set to 10 and 40 °C, respectively.
(§2) The MRM ion transitions of the parent compounds were optimized carefully in positive ionization mode (see Supplementary Tables S1 and S2). Enhanced product ion (EPI) scan experiments were performed using hypothetical masses of anticipated phase I metabolites, and the obtained spectra were compared to the EPI spectrum of the respective parent compound. In order to detect unexpected metabolites not covered by the EPI scan approach, precursor ion scan experiments for the characteristic fragment ion at m/z 145 and for the m/z of its modified analogs 161 (monohydroxylation), 177 (dihydroxylation) and 179 (dihydrodiol) were conducted. The relative abundances of the characterized metabolites in the urine samples obtained during the self-administration study were compared using an MRM method comprising the most abundant ion transitions of each metabolite (see Supplementary Fig. S1 and Table S3).
The analysis of in vivo metabolism of 5F-Cumyl-PINACA in an authentic urine sample was conducted in accordance with the client’s inquest.
(§3) In order to cleave conjugates, 0.5 mL of an urine sample was incubated at 45 °C for 1 h after addition of 0.5 mL phosphate buffer (pH 6) and 30 µL β-glucuronidase. In a next step, 1.5 mL acetonitrile and 0.5 mL ammonium formate ([…]) were added. After shaking and centrifugation, 1 mL of the acetonitrile phase was transferred into a glass vial and evaporated to dryness under a gentle nitrogen stream at 40 °C. The residue was reconstituted in 200 µL mobile phase A/B (50:50, v/v) directly before LC–MS/MS analysis. Blank urine samples were prepared serving as negative controls.

[2] = Self-administration study, phase I metabolites of Cumyl-PINACA in urine (LC-MS/MS); format: in vivo, human; conditions: for peak area in urine: normalized to creatinine 100 mg/dL
Experimental: as §1, §2
(§4) To investigate the in vivo phase I metabolism of Cumyl-PINACA, one of the authors (75 kg person) ingested 0.6 mg Cumyl-PINACA orally. In addition to blank samples taken prior to ingestion, serum and urine samples were collected repeatedly over periods of 17 and 31 h after ingestion, respectively. All samples were stored at − 20 °C until analysis. In Germany, approval by an ethics committee is not required for scientific self-experiments.
as §3

[3] = as above; format: in vivo, human; conditions: for peak area in urine: normalized to creatinine 100 mg/dL; remark: listed apart in the source
[4] = test system: pooled human liver microsomes (pHLM); experiment: Pooled human liver microsome assay (phase I metabolism); format: in vitro ADME; conditions: 60 min, 37 °C
Experimental: as §1, §2
To investigate the tentative phase I metabolism of Cumyl-PINACA and 5F-Cumyl-PINACA (extracted from e-liquids), in vitro experiments with pHLM were performed in triplicates. A 0.5-µL volume of a substrate solution ([…] in acetonitrile) was added to 49.5 µL of a reaction mixture consisting of 2.5 µL pHLM, 2.5 µL NADPH regenerating solution A, 0.5 µL NADPH regenerating solution B, 5.0 µL SOD, 10 µL 0.5 M phosphate buffer, and 29 µL deionized water. Incubation was performed for 60 min at 37 °C. The reaction was terminated by the addition of ice-cold acetonitrile, and the supernatant was analyzed after 1:10 dilution with mobile phase A/B (50:50, v/v). Blank pHLM samples were processed in the same way serving as negative controls.

[5] = Self-administration study, serum concentrations of Cumyl-PINACA (LC-MS/MS); format: in vivo, human; conditions: 0.6 mg oral, one volunteer
Description: For analysis of the serum samples, a routinely used LC–MS/MS screening method, currently covering 94 compounds with at least two ion transitions for each analyte and one ion transition for each internal standard in positive scheduled multiple reaction monitoring (+sMRM) was applied. Briefly, a QTRAP™ 4000 triple quadrupole linear ion trap instrument (Sciex, Darmstadt, Germany) equipped with a TurbolonSpray® interface and coupled to a Shimadzu Prominence HPLC system consisting of two LC-20 AD SP isocratic pumps, SIL 20 AC autosampler, CTO-20A controller (Shimadzu, Duisburg, Germany) and Analyst® software version 1.6.2 were used (Sciex). […] The total flow rate was 0.5 mL/min. The autosampler and the column oven temperatures were set to 10 and 40 °C, respectively. The monitored ion transitions used for Cumyl-PINACA were m/z 350→215 and 350→232.
as §4
A 1-mL aliquot of a serum sample was spiked with 10 µL of an internal standard solution mixture (25 ng/mL each, ADBICA-d9, AKB48-d9, JWH-007-d9, JWH-015-d7, JWH-018-d11, JWH-073-d9, JWH-081-d9, JWH-122-d9, JWH-200-d5, JWH-210-d9, JWH-250-d5, JWH-398-d9, MAM-2201-d5, PB-22-d9, RCS-4-d9, UR-144-d5, XLR-11-d5). A 0.5-mL volume carbonate buffer (pH 10) and 1.5 mL of extraction mixture 1 (n-hexane/ ethyl acetate, 99:1, v/v) were added. After gentle mixing for 5 min, the sample was centrifuged and 1 mL of the supernatant was transferred to an HPLC vial. Subsequently, 1.5 mL of extraction mixture 2 (n-hexane/ethyl acetate, 80:20, v/v) was added to the residue, and the mixing and centrifugation steps were repeated. A 1-mL volume of the supernatant was added to the same HPLC vial, and after evaporation under a gentle stream of nitrogen at 40 °C and reconstitution in 100 µL of mobile phase (A/B, 80:20, v/v), the sample was analyzed using LC–MS/MS.

CB1 = target: T1, CB1 (Homo sapiens, UniProt P21554); experiment: cAMP biosensor assay with CB1 as target (DiscoveRx); format: cell-based
T1 construct: purchased DiscoveRx (Fremont, CA, USA)
T1 sequence (P21554 whole entry): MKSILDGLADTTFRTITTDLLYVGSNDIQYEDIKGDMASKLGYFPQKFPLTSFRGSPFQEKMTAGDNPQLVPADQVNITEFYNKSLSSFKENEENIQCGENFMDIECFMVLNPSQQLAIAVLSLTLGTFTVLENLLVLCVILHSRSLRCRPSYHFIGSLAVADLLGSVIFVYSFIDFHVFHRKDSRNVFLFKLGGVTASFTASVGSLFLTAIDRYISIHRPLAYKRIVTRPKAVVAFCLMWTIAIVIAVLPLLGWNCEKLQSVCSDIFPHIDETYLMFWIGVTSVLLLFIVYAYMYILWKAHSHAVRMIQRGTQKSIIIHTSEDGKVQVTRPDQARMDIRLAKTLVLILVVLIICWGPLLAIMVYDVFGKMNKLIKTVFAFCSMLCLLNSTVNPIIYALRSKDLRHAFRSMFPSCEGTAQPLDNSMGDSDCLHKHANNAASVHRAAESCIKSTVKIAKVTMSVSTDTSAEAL
Experimental: Each compound was tested in duplicates; to induce response, 20 µM forskolin was used.

[6] = 6 h after 0.6 mg Cumyl-PINACA oral
[7] = 16 h after 0.6 mg Cumyl-PINACA oral
[8] = 20.3 h after 0.6 mg Cumyl-PINACA oral
[9] = 22.3 h after 0.6 mg Cumyl-PINACA oral
[10] = 26.3 h after 0.6 mg Cumyl-PINACA oral
[11] = 29.3 h after 0.6 mg Cumyl-PINACA oral
[12] = 37.2 h after 0.6 mg Cumyl-PINACA oral
[13] = pHLM incubation of 5F-Cumyl-PINACA
[14] = pHLM incubation of Cumyl-PINACA

## CC(C)(NC(=O)c1cn(CCCCCF)c2ccccc12)c1ccccc1 [5F-Cumyl-PICA, reference compound]
CB1 receptors
  potency of CB1 receptor activation compared to CP-55,940: greater potency than CP-55,940
CB1 receptor
  CB1 activity compared to CP-55,940: less activities as compared to CP-55,940
CB2 receptor
  CB2 activity compared to CP-55,940: less activities as compared to CP-55,940
CB2 receptors
  potency of CB2 receptor activation compared to CP-55,940: greater potency than CP-55,940

## CC(C)(NC(=O)c1nn(CCCCCF)c2ccccc12)c1ccccc1 [5F-Cumyl-PINACA, 1-(5-fluoropentyl)-N-(2-phenylpropan-2-yl)-1H-indazole-3-carboxamide]
CB1 receptors
  potency of CB1 receptor activation compared to CP-55,940: greater potency than CP-55,940
CB1 receptor
  CB1 activity compared to CP-55,940: less activities as compared to CP-55,940
CB2 receptor
  CB2 activity compared to CP-55,940: less activities as compared to CP-55,940
[1]
  detection of parent compound in urine: not detected
CB2 receptors
  potency of CB2 receptor activation compared to CP-55,940: greater potency than CP-55,940

## CC(C)(NC(=O)c1nn(CCCCC(=O)O)c2ccccc12)c1ccccc1 [A07]
[2]; [6]
  peak area in urine: 8.4E+04
[2]; [7]
  peak area in urine: 1.1E+05
[2]; [8]
  peak area in urine: 5.2E+04
[2]; [9]
  peak area in urine: 6.0E+04
[2]; [10]
  peak area in urine: 4.2E+04
[2]; [11]
  peak area in urine: 2.1E+04
[3]; [12]
  peak area in urine: 1.7E+04
[4]; [13]
  pHLM [Peak area]: 9.3E+06
[4]; [14]
  pHLM [Peak area]: 2.9E+06
[1]
  Urine [Peak area]: 1.8E+05

## CC(C)(NC(=O)c1nn(CCCCCO)c2ccccc12)c1ccccc1 [A08]
[2]; 0.6 mg Cumyl-PINACA oral
  detectable in urine after self-administration: over 8 days
  relative abundance in urine samples: most abundant metabolite in all analyzed urine samples
[2]; [6]
  peak area in urine: 1.7E+07
[2]; [7]
  peak area in urine: 4.1E+06
[2]; [8]
  peak area in urine: 1.4E+06
[2]; [9]
  peak area in urine: 1.5E+06
[2]; [10]
  peak area in urine: 7.7E+05
[2]; [11]
  peak area in urine: 5.7E+05
[3]; 3.2 h after 0.6 mg Cumyl-PINACA oral
  peak area in urine: 1.1E+06
[3]; [12]
  peak area in urine: 4.5E+05
[3]; 39 h after 0.6 mg Cumyl-PINACA oral
  peak area in urine: 2.9E+05
[3]; 88.5 h after 0.6 mg Cumyl-PINACA oral
  peak area in urine: 2.6E+04
[3]; 110.3 h after 0.6 mg Cumyl-PINACA oral
  peak area in urine: 6.1E+04
[3]; 134 h after 0.6 mg Cumyl-PINACA oral
  peak area in urine: 2.7E+04
[3]; 157.5 h after 0.6 mg Cumyl-PINACA oral
  peak area in urine: 1.5E+04
[3]; 182.5 h after 0.6 mg Cumyl-PINACA oral
  peak area in urine: 1.3E+04
[3]; 205.5 h after 0.6 mg Cumyl-PINACA oral
  peak area in urine: 1.1E+04
[4]; [13]
  pHLM [Peak area]: 6.0E+07
[4]; [14]
  pHLM [Peak area]: 7.3E+07
[1]
  abundance in authentic urine sample: high abundance
  Urine [Peak area]: 2.2E+05

## CC(C)(NC(=O)c1nn(CCCCCF)c2c1=CC(O)C(O)C=2)c1ccccc1 (centres unmarked) [B01]
[4]; [13]
  pHLM [Peak area]: 7.0E+06
[1]
  Urine [Peak area]: 5.6E+04

## CCCCCn1cc(C(=O)NC(C)(C)c2ccccc2)c2ccccc21 [Cumyl-PICA, reference compound]
CB1 receptors
  potency of CB1 receptor activation compared to CP-55,940: greater potency than CP-55,940
CB1 receptor
  CB1 activity compared to CP-55,940: less activities as compared to CP-55,940
CB2 receptor
  CB2 activity compared to CP-55,940: less activities as compared to CP-55,940
CB2 receptors
  potency of CB2 receptor activation compared to CP-55,940: greater potency than CP-55,940

## CCCCCn1nc(C(=O)NC(C)(C)c2ccccc2)c2ccccc21 [Cumyl-PINACA, 1-pentyl-N-(2-phenylpropan-2-yl)-1H-indazole-3-carboxamide]
CB1 receptors
  potency of CB1 receptor activation compared to CP-55,940: greater potency than CP-55,940
[3]; 0.6 mg Cumyl-PINACA oral
  detection of parent compound in urine: not detected in urine
[5]
  drug-related symptoms: did not experience any drug-related symptoms
  maximum concentration measured in serum: 0.1 ng/mL
  period of detection in serum: about 17 h
[5]; human, serum, read-out: time of maximum serum concentration after ingestion
  Tmax: 6 h
CB1
  EC50: 0.06 nM
  relative potency among the tested substances: most potent SC among the tested compounds; also recorded: most potent substance in this assay
CB1; agonist format, 20 µM forskolin
  Curve top: 93.7
CB1; control ligand CP-55,940, read-out: Maximum response (compared to CP-55,940)
  Emax: 92.9%
CB1 receptor
  CB1 activity compared to CP-55,940: less activities as compared to CP-55,940
CB2 receptor
  CB2 activity compared to CP-55,940: less activities as compared to CP-55,940
CB2 receptors
  potency of CB2 receptor activation compared to CP-55,940: greater potency than CP-55,940
